Values joined by “and” are separate entries in the source; they are usually repeats but may differ in a detail not shown here. Identical values can stand only once.

This series in a line: solvent given as SMILES.
Where [1] appears, read: in c1cc(-n2c3ccccc3c3ccccc32)cc(-n2c3ccccc3c3ccccc32)c1.

Regarding `CN(C)c1ccc(-c2nc3c(c4c2-c2ccccc2CC4)-c2ccccc2CC3)cc1`, the emission maximum came out at 452 nm (in C1CCOC1); 463 nm (in CC#N); 422 nm (in CCCCCC); 449 nm (in CCOC(C)=O); 460 nm (in CO); 470 nm (in CS(C)=O). Also, the emission maximum by setting is: (in Cc1ccccc1) 436 nm; (in ClCCl) 449 nm.

For the setting “in CS(C)=O”, `CCOC(=O)C1=C(N)n2c(=O)c3ccccc3c(=O)n2C1c1cccs1` (stereo unspecified) yielded an emission maximum of 439 nm.

`CCCCCCCCOc1ccc(-c2c3c4n(c(-c5ccc(OCCCCCCCC)cc5)c3c3n2[B-](F)(F)[n+]2c(ccc5ccccc52)N=3)[B-](F)(F)[n+]2c(ccc3ccccc32)N=4)cc1` had an emission maximum (in ClC(Cl)Cl) of 682 nm.

For `c1ccc(C2CCN3COc4c5ccccc5c5c6c7c(c2c3c46)C(c2ccccc2)CCN7CO5)cc1` (stereo unspecified), the emission maximum is, setting by setting: (in C1CCCCC1) 535 nm; (in C1CCOC1) 583 nm; (in C1COCCO1) 577 nm; (in CC#N) 610 nm; (in CC(C)=O) 603 nm; (in CCOC(C)=O) 584 nm. Besides, the emission maximum reads like this: (in CCOCC) 562 nm; (in CN(C)C=O) 612 nm; (in CO) 598 nm; (in CS(C)=O) 618 nm; (in Cc1ccccc1) 565 nm; (in ClC(Cl)Cl) 596 nm. This compound also registered an emission maximum (in ClCCl) of 600 nm.

As to `CSc1nc(-c2ccc(-n3c4ccccc4c4ccccc43)cc2)cc(-c2ccc(-n3c4ccccc4c4ccccc43)cc2)n1`, the emission maximum was 447 nm (in C1CCOC1), 497 nm (in CN(C)C=O), 410 nm (in Cc1ccccc1) and 446 nm (in ClC(Cl)Cl).

On to `COC(=O)C[C@H](Cc1c[nH]c2ccccc12)NC(=O)[C@H](CC(=O)N[C@@H](CC1=CCc2ccccc21)C(=O)OC)NC(=O)OC(C)(C)C`, for which the emission maximum (in CC#N) is 332 nm, the emission maximum (in CCOC(C)=O) worked out at 326 nm and the emission maximum (in CO) was 337 nm.

Take `COc1ccc2c(c1)c1cc(OC)ccc1c1c2ccc2cccc(C(=O)NC(C)(C)C)c21`: the emission maximum (in ClCCl) is given as 415 nm.

With `CN1/C(=C/C=C(/C=C/c2sc3ccccc3[n+]2C)c2ccc(F)cc2)Sc2ccccc21`, the emission maximum was found to be 674 nm (in CCO), 674 nm (in CO), 681 nm (in CS(C)=O) and 669 nm (in O).

`B1C=Cc2ccc3ccccc3c2N1` came in with an emission maximum (in C1CCCCC1) of 371 nm.

`CC[n+]1c(-c2ccccc2)c2cc(-n3cccc3)ccc2c2ccc(-n3cccc3)cc21`: the emission maximum (in O) was 502 nm.

For the setting “in C1CCCCC1”, `CCCC1(CCC)c2cc(-c3ccco3)ccc2-c2ccc(-c3ccco3)cc21` had an emission maximum of 377 nm.

For the compound `c1ccc(-c2nnc(-c3ccc(N4c5ccccc5N(c5ccccc5)c5ccccc54)cc3)n2-c2ccccc2)cc1`, the emission maximum runs as follows: (in Cc1ccccc1) 528 nm; under setting [1], 520 nm.

Compound `CN1C(=CC2=C([O-])C(=Cc3oc4ccccc4[n+]3C)C2=O)C(C)(C)c2ccccc21` came in with an emission maximum (in ClC(Cl)Cl) of 619 nm.

For the compound `O=[N+]([O-])c1ccc([N+]2=Cc3ccc4c5c(ccc4c3O[B-]2(c2ccccc2)c2ccccc2)C=[N+](c2ccc([N+](=O)[O-])cc2)[B-](c2ccccc2)(c2ccccc2)O5)cc1`, the emission maximum by setting is: (in Cc1ccccc1) 643 nm; (in ClCCl) 642 nm.

`N#Cc1ccc(Oc2ccc3c4c(cccc24)C(=O)N(CCO)C3=O)cc1` registered an emission maximum (in ClC(Cl)Cl) of 413 nm.

For the compound `F[B-]1(F)Oc2ccccc2-c2c3c(c4c([n+]21)CCc1ccccc1-4)CCc1ccccc1-3`, the emission maximum (in ClCCl) was 442 nm.

The compound `c1ccc(-c2nc3c(c4c2-c2ccccc2CC4)-c2ccccc2CC3)cc1` gave an emission maximum (in C1CCOC1) of 362 nm; an emission maximum (in CC#N) of 360 nm; an emission maximum (in CCCCCC) of 363 nm; an emission maximum (in CCOC(C)=O) of 359 nm; an emission maximum (in CO) of 362 nm; an emission maximum (in CS(C)=O) of 360 nm. The emission maximum turned out to be 361 nm (in Cc1ccccc1) and 361 nm (in ClCCl).

For the setting “in CO”, `Cc1cc(C)c(B(c2cc(-c3ccc(C(F)(F)F)cc3)sc2-c2sc(-c3ccc(C(F)(F)F)cc3)cc2P(=O)(c2ccccc2)c2ccccc2)c2c(C)cc(C)cc2C)c(C)c1` registered an emission maximum of 548 nm.

`Cc1nc2cccc(-c3nc4ccccc4o3)c2c(=O)[nH]1`: under “in CN(C)C=O”, the emission maximum was 398 nm.

Consider `N#Cc1c(N2CCCCC2)cc(-c2cccc3ccccc23)c2c1-c1ccccc1C2`, for which the emission maximum (in C1CCOC1) stood at 442 nm.

Consider `O=c1oc2c(ccc3ccccc32)nc1-c1ccccc1`, for which the emission maximum (in CC#N) came out at 490 nm; the emission maximum (in CCCCCC) was 459 nm; the emission maximum (in CO) is 511 nm; the emission maximum (in c1ccccc1) was 478 nm and 468 nm.

On to `COC(=O)c1c(C(=O)OC)c2ccc(-c3ccccc3)nn2c1C`, for which the emission maximum (in CCCCCC) is 471 nm.

`F[B-]1(F)n2c(c3c(c2-c2ccccc2)C2C=CC3CC2)C(c2ccccc2)=C2C3=C(C(c4ccccc4)=[N+]21)C1C=CC3CC1` (stereo unspecified) had an emission maximum (in ClCCl) of 588 nm.

Turning to `CCCCN1C(=O)c2c(Br)c(Br)c3c4c(Br)c(Br)c5c6c(c(Br)c(Br)c(c7c(Br)c(Br)c(c2c37)C1=O)c64)C(=O)N(CCCC)C5=O`, the emission maximum (in ClC(Cl)Cl) worked out at 600 nm.

In the case of `CC(=O)c1c(N[C@H](C(=O)O)C(C)C)c2ccc(N(C)C)cc2oc1=O`, where the note is “in ClCCl”, the emission maximum worked out at 446 nm.

For `CCC(CC)COC1=CC2=C3c4cc(OCC(CC)CC)c(-c5ccccc5)n4[B-](F)(F)[n+]4c3n(c3cc(C(C)(C)C)ccc34)[B-](F)(F)[N+]2=C1c1ccccc1`, the emission maximum by setting is: (in C1CCOC1) 734 nm; (in CC#N) 733 nm; (in ClCCl) 736 nm.

Regarding `CN1C(=O)/C(=C/c2ccncc2)N=C1/C=C/c1ccccc1`, the emission maximum by setting is: (in C1COCCO1) 546 nm; (in CC#N) 550 nm; (in CCO) 550 nm; (in CCOC(C)=O) 544 nm; (in O) 560 nm.

With `CNc1ccc2c(c1)-c1ccccc1C2=O`, the emission maximum runs as follows: (in C1CCCCC1) 489 nm; (in CC#N) 548 nm; (in CCO) 583 nm; (in c1ccccc1) 509 nm.

Compound `Cc1cc(C)c(B(c2ccc(N(c3ccccc3)c3ccccc3)cc2)c2c(C)cc(C)cc2C)c(C)c1` showed an emission maximum (in Cc1ccccc1) of 437 nm.

`CCCC1(CCC)c2cc(-c3ccc(-c4ccccc4)cc3)ccc2-c2ccc(-c3ccc4c(c3)C(CCC)(CCC)c3cc(-c5ccc(-c6ccccc6)cc5)ccc3-4)cc21` yielded an emission maximum (in Cc1ccccc1) of 402 nm.

As for `CC(=O)OCCN1C(=O)c2cccc3c(Oc4ccc(C=O)cc4)ccc(c23)C1=O`, the emission maximum (in ClC(Cl)Cl) is 411 nm.

On to `CCCCCCCCCCCCN1C(=O)c2c(c3ccc4cc(-c5ccc(-c6ccccc6)cc5)c(OC)cc4c3c3c2ccc2cc(-c4ccc(-c5ccccc5)cc4)c(OC)cc23)C1=O`, for which the emission maximum (in ClCCl) is given as 527 nm.

`c1ccc(C2=C(c3ccccc3)c3cccc4c3c(cc3nc5cc(-c6ccccc6)c(-c6ccccc6)cc5nc34)O2)cc1` yielded an emission maximum (in ClCCl) of 559 nm.

Take `CC(C)(C)c1ccc2c(c1)B1c3cc(C(C)(C)C)ccc3Oc3cc(N4c5ccccc5C(C)(C)c5ccccc54)cc(c31)O2`: the emission maximum (in Cc1ccccc1) is reported as 458 nm.

Take `COc1c2ccccc2c(OC)c2c(C#C[Si](C(C)C)(C(C)C)C(C)C)c3cc4ccccc4cc3c(C#C[Si](C(C)C)(C(C)C)C(C)C)c12`: the emission maximum (in ClCCl) was 712 nm.

On to `Cc1cccc(NC(=O)c2ccc(N(C)C)cc2)c1`, for which the emission maximum is, setting by setting: (in C1CCCCC1) 452 nm; (in C1CCOC1) 518 nm; (in CC#N) 502 nm; (in CCOCC) 498 nm.

Consider `O=C(c1ccccc1)c1cc2ccc1CCc1ccc(cc1-c1ccc(N(c3ccccc3)c3ccccc3)cc1)CC2`, for which the emission maximum was 492 nm (in Cc1ccccc1) and 481.13 nm under setting [1].

For `Cc1c(C)c(B(c2c(C)c(C)c(N3c4ccccc4Oc4ccccc43)c(C)c2C)c2c(C)c(C)c(N3c4ccccc4Oc4ccccc43)c(C)c2C)c(C)c(C)c1C#N`, the emission maximum (in c1ccc([Si](c2ccccc2)(c2ccc(-n3c4ccccc4c4ccccc43)cc2)c2ccc(-n3c4ccccc4c4ccccc43)cc2)cc1) was 517 nm.

As to `CN(C)c1ccc(-c2nc(-c3ccccc3)n3ccccc23)cc1`, under “in ClC(Cl)Cl”, the emission maximum amounted to 524 nm.

For the setting “in ClC(Cl)Cl”, `CCCCCCCCOc1ccc(-c2c3c4n(c(-c5ccc(OCCCCCCCC)cc5)c3c3n2[B-](c2ccccc2)(c2ccccc2)[n+]2c(ccc5cc(C(C)(C)C)ccc52)C=3C#N)[B-](c2ccccc2)(c2ccccc2)[n+]2c(ccc3cc(C(C)(C)C)ccc32)C=4C#N)cc1` showed an emission maximum of 831 nm.

As for `CCN(CC)c1ccc2cc(C#N)/c(=N\C(=O)c3ccco3)oc2c1`, the emission maximum is, setting by setting: (in CCO) 470 nm; (in ClCCl) 460 nm.

In turn, `c1cc2ccc3cc4[nH]ccc4c4ccc(c1)c2c34` had an emission maximum (in CCOC(C)=O) of 398 nm.

As for `CC1=C2C=CC(C)=[N+]2[B-](F)(F)n2cccc21`, the emission maximum is 504 nm (in CCCCCC), 502 nm (in CO) and 506 nm (in ClCCl).

For the setting “in CC#N”, `Cc1sc(Cl)cc1-c1nc(-c2ccccc2)[nH]c1-c1cc(Cl)sc1C` returned an emission maximum of 381 nm.

In the case of `CCCCCCc1ccc2c(/C=N/c3cc(/N=C/c4c(O)ccc5cc(CCCCCC)ccc45)cc(/N=C/c4c(O)ccc5cc(CCCCCC)ccc45)c3)c(O)ccc2c1`, the emission maximum amounted to 509 nm (in C1CCOC1), 507 nm (in CC#N), 507 nm (in Cc1ccccc1) and 511 nm (in ClCCl).

Regarding `CC1(C)c2ccccc2N(c2ccccc2)c2ccc(-c3ccc(-c4ccc5c(c4)C(C)(C)c4ccccc4N5c4ccccc4)c4nsnc34)cc21`, the emission maximum (in Cc1ccccc1) came to 596.02 nm and the emission maximum (in c1ccc2c(c1)c1ccccc1n2-c1ccc(-c2ccc(-n3c4ccccc4c4ccccc43)cc2)cc1) came out at 588 nm.

Where the note is “in Cc1ccccc1”, `N#Cc1ccc(N2c3ccccc3C(c3ccccc3)(c3ccccc3)c3ccccc32)cc1` displayed an emission maximum of 428 nm.
